Assay results as given in US20040180959A1, “Gabapentin analogues for fibromy algia and concomitant disorders” (priority 2002, published 2004).

Experiments:
Type in all cases: in vivo
[1] = system: CD-1 mice; assay: Tail Suspension Test (TST) in mice; settings: 2 hours after treatment
Method: The anxiolytic and antidepressant activity of (3S, 4S)-(1-Aminomethyl-3,4-dimethyl-cyclopentyl)-acetic acid (“Compound A”) was assessed using the Tail Suspension Test (TST) in mice, and in the Water-lick (Vogel) Conflict Test (WLC) in rats. The Vogel test is a recognized test procedure for assessing the potential anxiolytic utility. The TST procedure is a behavior despair paradigm used to assess potential antidepressant activity.
The method consisted of suspending mice by a piece of cellophane tape attached to the distal end of the tail for 6 minutes. Animals (CD-1 mice, weighing 22 to 27 g, from Charles River Labs) were tested. The test apparatus was the TST-2™ (ITEM-Labo, Le Kremmlin-Bicetre Cedex, France). Data were analyzed with analysis of variance (ANOVA) and Tukey's Multiple Range Test or Student's t-test.
(§1) Compound A was dissolved in water and tested orally as a solution from 0.3 to 100 mg/kg in rats and 3 to 300 mg/kg in mice. Dosages are expressed as the active moiety and were administered in a volume of 1 mL/kg for rats and 10 mL/kg for mice.
The profile of typical […] activity in the TST consists of […]. Compound A and pregabalin were tested concurrently (PO) 2 hours after treatment. Compound A was administered at doses ranging from 3 to 100 mg/kg and pregabalin was tested from 3-300 mg/kg and served as positive control (Table 1). Compound A dose dependently increases immobility with the MED observed at the 3 mg/kg dosage and maximal effects were seen following the 30 mg/kg dose.

[2] = system: mice; assay: Inverted Screen Test to assess coordination; settings: immediately following the TST
Method: Immediately following the TST, mice were also tested in the Inverted Screen Test to assess coordination. Animals were given a 1-minute trial in which they had to climb to the top of the inverted screen or to simply hang on and not fall off.

[3] = system: Wistar rats; assay: Water-lick (Vogel) Conflict Test in rats; settings: for Percent of Animals Tested With >20 Shock Episodes / Mean Shock Episodes (1 mA): pretreatment 120 minutes; for Mean Shock Episodes (1 mA): Mean ± SEM
Method: In each experiment, naive adult male Wistar rats between 170 to 200 g were randomly divided into groups (N=10-30/group) and deprived of water for 48 hours prior to testing. Food was available on Day 1 and removed 24 hours prior to test Day 2.
Apparatus: The modular operant test cage (Coulbourn Instruments) measures 10.25×12×12 in. The test chambers feature 3 modular bays on each side of the cage for a total of 6 bays. A module optical lickometer is mounted on one side of the chamber 5 cm above the grid floor. The lickometer is used to measure licking-drinking from a water bottle mounted outside the test chamber. A photo beam is piped via glass rods to the tip of the drink tube across a gap at the end of the tube. The animals tongue breaks the beam on each lick. The front and back of the test chamber is made of clear Plexiglas. The front door is covered to reduce distractions from inside the test room. The back of the test chamber is facing a wall, away from the flow of traffic within the testing room and remains uncovered to provide the opportunity for observations during testing. Shocks are delivered using a (Coulbourn) programmable universal shocker calibrated to deliver a 1 mA shock for 1 second through the drink tube.
Procedure: On Day 1, after a 24-hour water deprivation, experimental subjects were placed into the test chambers and allowed to drink unpunished. Drinking was limited to 500 responses or approximately 5 mL of water during a 10 minute session. Immediately following the unpunished drinking session, rats were returned to their home cages, deprived of water for an additional 24 hours and was food deprived. […] After the pretreatment period rats were placed into a test chamber and allowed to drink for 10 minutes. After every 10 licks, rats received a 1-second shock (1 mA) through the drink tube. Thus, a conflict or anxiety-producing situation exists. Rats are motivated to drink; however, they are inhibited by the shock. Anxiety is reflected by the low amounts of drinking. Standard anxiolytic drugs produce effects that allow rats to overcome this behavioral inhibition and drink despite the shock.
All data were analyzed using a Kruskal-Wallis one Way Analysis of Variance on Ranks and Mann-Whitney Rank Sum Tests.
Quantitative Analysis: A quantitative analysis represents the percentage of subjects within a treatment group that receives >20 shock episodes during a test session. This number provides a quantitative comparison regarding the distribution of the responses.
as §1

[4] = dose 3× the Vogel MED (30 mg/kg)

CC(C)C[C@H](CN)CC(=O)O [Pregabalin, pregabalin, reference compound]
Immobility, % Percent of control ([1]; 3 mg/kg PO): 102.9 ± 9.5% | Power of Movement, % Percent of control ([1]; 3 mg/kg PO): 99.1 ± 22.9% | Immobility, % Percent of control ([1]; 10 mg/kg PO): 134.5 ± 9.9 % | Power of Movement, % Percent of control ([1]; 10 mg/kg PO): 89.6 ± 18.7% | Immobility, % Percent of control ([1]; 30 mg/kg PO): 136.9 ± 7.1 % | Power of Movement, % Percent of control ([1]; 30 mg/kg PO): 96.4 ± 22.7% | Immobility, % Percent of control ([1]; 100 mg/kg PO): 152.7 ± 6.6 % | Power of Movement, % Percent of control ([1]; 100 mg/kg PO): 73.4 ± 12.5% | Immobility, % Percent of control ([1]; 300 mg/kg PO): 160.5 ± 7.4 % | Power of Movement, % Percent of control ([1]; 300 mg/kg PO): 76.6 ± 12.2% | Screen fall-off, animals of animals tested ([2]; 100 mg/kg PO): 1 of 10 | Screen fall-off, animals of animals tested ([2]; 300 mg/kg PO): 1 of 10 | Percent of Animals Tested With >20 Shock Episodes ([3]; 0.3 mg/kg PO): 0% | Mean Shock Episodes (1 mA) ([3]; 0.3 mg/kg PO): 5.1 ± 1.0 | Percent of Animals Tested With >20 Shock Episodes ([3]; 1 mg/kg PO): 20% | Mean Shock Episodes (1 mA) ([3]; 1 mg/kg PO): 15.0 ± 6.3 | Percent of Animals Tested With >20 Shock Episodes ([3]; 3 mg/kg PO): 20% | Mean Shock Episodes (1 mA) ([3]; 3 mg/kg PO): 10.2 ± 1.6 | Percent of Animals Tested With >20 Shock Episodes ([3]; 10 mg/kg PO): 20% | Mean Shock Episodes (1 mA) ([3]; 10 mg/kg PO): 14.7 ± 4.0 | Shock episodes (time-course) ([3]; 10 mg/kg, 1 hr post treatment): 65.8 ± 10.8 | Shock episodes (time-course) ([3]; 10 mg/kg, 2 hr post treatment): 73.3 ± 13.7 | Shock episodes (time-course) ([3]; 10 mg/kg, 4 hr post treatment): 75.1 ± 13.7 | Shock episodes (time-course) ([3]; 10 mg/kg, 6 hr post treatment): 54.9 ± 14.7 | Shock episodes (time-course) ([3]; 10 mg/kg, 8 hr post treatment): 41.9 ± 13.5 | Percent of Animals Tested With >20 Shock Episodes ([3]; 30 mg/kg PO): 50% | Mean Shock Episodes (1 mA) ([3]; 30 mg/kg PO): 51.0 ± 19.1 | Shock episodes (time-course) ([3]; 30 mg/kg, 30 min. post treatment): 27.7 ± 8.2 | Shock episodes (time-course) ([3]; 30 mg/kg, 1 hr post treatment): 66.5 ± 10 | Shock episodes (time-course) ([3]; 30 mg/kg, 2 hr post treatment): 59.8 ± 9.8 | Shock episodes (time-course) ([3]; 30 mg/kg, 4 hr post treatment): 100.3 ± 12 | Shock episodes (time-course) ([3]; 30 mg/kg, 6 hr post treatment): 39.5 ± 9 | Shock episodes (time-course) ([3]; 30 mg/kg, 8 hr post treatment): 30.4 ± 9.1 | Percent of Animals Tested With >20 Shock Episodes ([3]; 100 mg/kg PO): 50% | Mean Shock Episodes (1 mA) ([3]; 100 mg/kg PO): 40.7 ± 11.1 | Time of maximal effects after treatment ([3]; MED dose 10 mg/kg): 2 to 4 h | Activity maintained through [3, 4]: 8 h | Onset of activity after treatment [3, 4]: 1 h | Time of peak activity post treatment [3, 4]: 6 h | MED for anti-conflict activity ([3]; oral, 2 hour pretreatment, rats): 10 mg/kg
